From US20100056502A1, “COMPOUNDS” (GLAXO GROUP LIMITED, priority 2007, published 2010)
Counter-ions that a name gives are not always drawn.

system: Mycobacterium tuberculosis H37Rv; assay: Mycobacterium tuberculosis H37Rv Inhibition Assay; type: cell-based; settings: ATCC 25618 / H37Rv, H37Rv strain (ATCC25618), resazurin fluorescence readout
Procedure: The measurement of the minimum inhibitory concentration (MIC) for each tested compound was performed in 96 wells flat-bottom, polystyrene microtiter plates. Ten two-fold drug dilutions in neat DMSO starting at 400 μM were performed. Five μl of these drug solutions were added to 95 μl of Middlebrook 7H9 medium. (Lines A-H, rows 1-10 of the plate layout). Isoniazid was used as a positive control, 8 two-fold dilution of Isoniazid starting at 160 μgml^−1 was prepared and 5 μl of this control curve was added to 95 μl of Middlebrook 7H9 (Difco catalogue Ref. 271310)+ADC medium (Becton Dickinson Catalogue Ref. 211887). (Row 11, lines A-H). Five μl of neat DMSO were added to row 12 (growth and Blank controls).
The inoculum was standardised to approximately 1×10^7 cfu/ml and diluted 1 in 100 in Middlebrook 7H9+ADC medium and 0.025% Tween 80 (Sigma P4780), to produce the final inoculum of H37Rv strain (ATCC25618). One hundred μl of this inoculum was added to the entire plate but G-12 and H-12 wells (Blank controls). All plates were placed in a sealed box to prevent drying out of the peripheral wells and they were incubated at 37° C. without shaking for six days. A resazurin solution was prepared by dissolving one tablet of resazurin (Resazurin Tablets for Milk Testing; Ref 330884Y VWR International Ltd) in 30 ml sterile PBS (phosphate buffered saline). 25 μl of this solution was added to each well. Fluorescence was measured (Spectramax M5 Molecular Devices, Excitation 530 nm, Emission 590 nm) after 48 hours to determine the MIC value.

| Structure (SMILES) | MIC |
| --- | --- |
| O=C1CSc2ccc(CNC3CCN(CC4CCn5c(=O)ccc6ccc(F)c4c65)CC3)nc2N1 (centres unmarked) [Example 10, 10-fluoro-1-[(4-{[(3-oxo-3,4-dihydro-2H-pyrido[3,2-b][1,4]thiazin-6-yl)methyl]amino}-1-piperidinyl)methyl]-2,3-dihydro-1H,5H-pyrido[3,2,1-ij]quinolin-5-one dihydrochloride] | ≤ 1.8 µg/mL |
| O=C1COc2ccc(CNC3CCN(CC4CCn5c(=O)ccc6ccc(F)c4c65)CC3)nc2N1 (centres unmarked) [Example 11, 10-fluoro-1-[(4-{[(3-oxo-3,4-dihydro-2H-pyrido[3,2-b][1,4]oxazin-6-yl)methyl]amino}-1-piperidinyl)methyl]-2,3-dihydro-1H,5H-pyrido[3,2,1-ij]quinolin-5-one dihydrochloride] | ≤ 1.8 µg/mL |
| O=C1COc2ccc(CN[C@H]3CCN(CC4CCn5c(=O)ccc6ccc(F)c4c65)C[C@H]3O)nc2N1 (stereo partly drawn) [Example 17, 10-fluoro-1-[((3R,4S)-3-hydroxy-4-{[(3-oxo-3,4-dihydro-2H-pyrido[3,2-b][1,4]oxazin-6-yl)methyl]amino}-1-piperidinyl)methyl]-2,3-dihydro-1H,5H-pyrido[3,2,1-ij]quinolin-5-one dihydrochloride] | ≤ 1.8 µg/mL |
| O=C1COc2ccc(CNC3CCN(CC4CCn5c(=O)sc6ccc(F)c4c65)CC3)nc2N1 (centres unmarked) [Example 32, 7-Fluoro-6-[(4-{[(3-oxo-3,4-dihydro-2H-pyrido[3,2-b][1,4]oxazin-6-yl)methyl]amino}-1-piperidinyl)methyl]-5,6-dihydro-4H-[1,3]thiazolo[5,4,3-ij]quinolin-2-one dihydrochloride] | ≤ 1.8 µg/mL |
| O=C1COc2ccc(CNC3CCN(CC4CCN5C(=O)COc6ccc(F)c4c65)CC3)nc2N1 (centres unmarked) [Example 37, 8-Fluoro-7-[(4-{[(3-oxo-3,4-dihydro-2H-pyrido[3,2-b][1,4]oxazin-6-yl)methyl]amino}-1-piperidinyl)methyl]-6,7-dihydro-5H-[1,4]oxazino [2,3,4-ij]quinolin-3(2H)-one dihydrochloride] | ≤ 1.8 µg/mL |
